Literature values as cited in patent US20090130200A1, “GRANULES FOR CONTROLLED RELEASE OF TAMSULOSIN” (SIEGFRIED GENERICS INTERNATIONAL AG, priority 2004, published 2009).
Counter-ions that a name gives are not always drawn.

For `CCOc1ccccc1OCCN[C@H](C)Cc1ccc(OC)c(S(N)(=O)=O)c1` [Tamsulosin hydrochloride], the solubility in water is given as “only slightly soluble in water”.
